Assay results from PubChem BioAssay (NCI).
Several values for one entry are separate records, joined by “and”; a condition that tells them apart may be missing. Identical values can stand only once.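 Test compounds were applied to cells in 96-well plates for 48 hours at 5 doses. GI50: concentration for 50% inhibition of growth. TGI marks complete inhibition of growth.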

What was measured:
Test in all cases: NCI tumour cell line growth inhibition, 48 h
[1] = tested on: SF-268 CNS
[2] = tested on: SK-MEL-5 melanoma
[3] = tested on: HOP-62 NSCLC
[4] = tested on: UACC-62 melanoma
[5] = tested on: SK-MEL-28 melanoma
[6] = tested on: OVCAR-5 ovarian
[7] = tested on: KM12 colon
[8] = tested on: NCI-H226 lung
[9] = tested on: RPMI-8226 leukemia
[10] = tested on: SR leukemia

Compound | GI50 [1] | TGI [1] | GI50 [2] | TGI [2] | GI50 [3] | TGI [3] | GI50 [4] | TGI [4] | GI50 [5] | TGI [5] | GI50 [6] | TGI [6] | GI50 [7] | TGI [7] | GI50 [8] | TGI [8] | GI50 [9] | TGI [9] | TGI [10] | GI50 [10]
Oc1ccc(Cc2ccc(O)c3ncccc23)c2cccnc12 | 0.0527 µM | > 100 µM | 0.12 µM | 0.609 µM | 0.0442 µM | 1.09 µM | 40.8 nM | 0.804 µM | 0.0607 µM | > 100 µM | 0.269 µM | > 100 µM | 0.149 µM | > 100 µM | 373 nM | 42.7 µM | 0.0424 µM | 1.55 µM | – | –
O=C1C(Cl)C(c2cccc(O)c2)N1n1cnc2ccccc2c1=O (stereo not given) | – | > 100 µM | – | > 100 µM | – | > 100 µM | – | > 100 µM | – | > 100 µM | – | > 100 µM | – | – | – | > 100 µM | – | > 100 µM | > 100 µM | –
CC(=O)O[C@H]1C(=O)[C@@]2(C)C(C(OC(=O)c3ccccc3)[C@]3(O)CC(OC(=O)[C@H](OC(=O)CCC(=O)O)C(NC(=O)c4ccccc4)c4ccccc4)C(C)=C1C3(C)C)C1(OC(C)=O)COC1C[C@@H]2OC(=O)CCC(=O)O (stereo not given in full) | – | > 100 µM | – | > 100 µM | – | – | 2050 nM | 29.3 µM | – | 86.9 µM | – | – | – | > 100 µM | – | 81.1 µM and > 100 µM | – | – | > 23.3 µM | < 0.0202 µM
CCN1C2=NC(=O)N(C)C(=O)C2(Cl)C(C(SC)S(=O)(=O)c2ccc(C)cc2)c2ccccc21 (stereo not given) | – | > 100 µM | – | > 100 µM | – | > 100 µM | – | > 100 µM | – | 67.9 µM | – | > 100 µM | – | – | – | > 100 µM | – | 41.6 µM | – | –
O=C1C=C[C@@]23CC1C(O)C[C@H]2C=Cc1ccccc13 (stereo not given in full) | – | > 100 µM | – | > 100 µM | – | > 100 µM | – | > 100 µM | – | – | – | > 100 µM | – | > 100 µM | – | > 100 µM | – | > 100 µM | – | –
CCOc1ccc(N=Cc2cccc3cccnc23)cc1 | – | > 100 µM | – | > 100 µM | – | > 100 µM | – | > 100 µM | – | > 100 µM | – | > 100 µM | – | > 100 µM | – | > 100 µM | – | > 100 µM | – | –
O=c1cc(C(F)(F)F)c2cc3c(cc2o1)NCCC3 | – | > 100 µM | – | > 100 µM | – | 42.8 µM | – | – | – | > 100 µM | – | > 100 µM | – | > 100 µM | – | > 100 µM | – | > 100 µM | > 100 µM | –
CCOP(=O)(OCC)C(NC(c1ccccc1)c1ccccc1)c1ccccc1 (stereo not given) | 15.6 µM | 35.4 µM | 19 µM | 33.3 µM | 16.6 µM | 30.3 µM | 12100 nM | 25.9 µM | 41.1 µM | > 100 µM | – | – | 18.4 µM | 34.6 µM | – | – | 4.18 µM | 22.3 µM | – | –
Cc1ccc(NC(=O)CC2C(=O)Nc3ccccc3S2=O)cc1C (stereo not given) | – | > 100 µM | – | > 100 µM | – | – | – | > 100 µM | – | > 100 µM | – | > 100 µM | – | – | – | > 100 µM | – | > 100 µM | > 100 µM | –
CC[C@]1(O)CC2CN(CCc3c([nH]c4ccccc34)[C@@](C(=O)OC)(c3cc4c(cc3OC)N(C)[C@H]3[C@@](O)(C(=O)OC)[C@H](OC(C)=O)[C@]5(CC)C=CCN6CC[C@]43[C@@H]65)C2)C1 (stereo not given in full) | < 0.005 µM | 8.08 µM | < 0.005 µM | 0.0607 µM | < 0.005 µM | 9.89 µM | < 5 nM | 8.91 µM | – | – | 0.01 µM | > 47.2 µM | < 0.005 µM | 0.141 µM | < 5 nM | 0.148 µM | < 0.005 µM | 8.48 µM | – | < 0.005 µM
CC(O)/C=C/C(CCC(C)CO)C(C)C (stereo not given) | – | > 100 µM | – | > 100 µM | – | > 100 µM | – | > 100 µM | – | > 100 µM | – | > 100 µM | – | > 100 µM | – | – | – | > 100 µM | – | –
COc1ccc(/C=C/C(=O)c2cc3c(N)c(C(=O)Nc4ccccc4Cl)sc3nc2C)cc1 | 3.39 µM | 27.9 µM | 1.36 µM | 8.79 µM | 1.62 µM | 8.02 µM | 391 nM | 8.93 µM | – | – | > 50 µM | > 50 µM | 3.48 µM | > 50 µM | 2430 nM | 17.4 µM | 5.72 µM | > 50 µM | > 50 µM | 3.77 µM
OCCCCC#Cc1ccccc1C#Cc1ccccc1 | 16.8 µM | 37.6 µM | 14.4 µM | 28.6 µM | 16.3 µM | 30.6 µM | 11100 nM | 23.5 µM | 17 µM | 41.6 µM | 17.7 µM | 43.6 µM | – | – | 16200 nM | 35.3 µM | 15.9 µM | 37.7 µM | – | –
O=S(=O)([O-])c1cccc2cccc(N=Cc3ccccc3[O-])c12.O=S(=O)([O-])c1cccc2cccc(N=Cc3ccccc3[O-])c12.[O]=[U]=[O] | > 100 µM | > 100 µM | – | – | 42.6 µM | > 100 µM | > 100000 nM | > 100 µM | > 100 µM | > 100 µM | > 100 µM | > 100 µM | – | – | 84900 nM | > 100 µM | 39.8 µM | > 100 µM | – | –
Cc1cccc(-c2nc3c(C(=O)NCCN(C)C)cccc3[nH]2)c1 | – | 5.28 µM | – | 3 µM | – | 3.46 µM | – | 3.2 µM | – | 3.46 µM | – | 4.14 µM | – | 4 µM | – | 3.89 µM | – | 9.49 µM | – | –
[Cl][Bi]([O]c1ccccn1)[O]c1ccccn1 | > 100 µM | > 100 µM | 40.2 µM | > 100 µM | – | – | > 100000 nM | > 100 µM | > 100 µM | > 100 µM | > 100 µM | > 100 µM | > 100 µM | > 100 µM | – | – | – | – | > 100 µM | > 100 µM
CSc1nc(NC2OCC(OC(C)=O)C(OC(C)=O)C2OC(C)=O)c2c(OC(C)=O)c(C)c(=O)oc2n1 (stereo not given) | – | – | – | > 100 µM | – | > 100 µM | – | > 100 µM | – | – | – | > 100 µM | – | > 100 µM | – | > 100 µM | – | > 100 µM | – | –
COC(=O)C1=C(C)N(NC(N)=O)C2(N)N(NC(N)=O)C(C)=C(C(=O)OC)C12C(=O)OC (stereo not given) | – | > 100 µM | – | – | – | > 100 µM | – | > 100 µM | – | > 100 µM | – | > 100 µM | – | > 10 µM | – | > 100 µM | – | > 100 µM | – | –
Cc1c(/C=N/NS(=O)(=O)c2ccccc2)no[n+]1[O-] | – | > 100 µM | – | > 100 µM | – | – | – | > 100 µM | – | > 100 µM | – | > 100 µM | – | > 100 µM | – | – | – | > 100 µM | > 100 µM | –
O=C(O)CNc1c2ccccc2nc2ccccc12 | – | > 100 µM | – | > 100 µM | – | – | – | > 100 µM | – | > 100 µM | – | > 100 µM | – | > 100 µM | – | > 100 µM | – | > 100 µM | > 100 µM | –
